pIC50: −log10 of the molar value.
Assays:
PDPK1 [1] = target: T1, PDPK1 (Homo sapiens, UniProt O15530); assay: PDK1-OMNIA kinase assay (ST28-Sox peptide); format: biochemical; parameters: purchased Invitrogen, BPS or SignalChem P3001 (Invitrogen), 40080 (BPS), P14-10H (SignalChem); conditions: PDPK1 enzyme pre-incubated 30 min at 25° C. with compound; [ATP]=5 μM; ST28-Sox peptide substrate; read-out: Inhibition/Modification Designation (IC50, PDK1-OMNIA)
T1 sequence (O15530 1-556): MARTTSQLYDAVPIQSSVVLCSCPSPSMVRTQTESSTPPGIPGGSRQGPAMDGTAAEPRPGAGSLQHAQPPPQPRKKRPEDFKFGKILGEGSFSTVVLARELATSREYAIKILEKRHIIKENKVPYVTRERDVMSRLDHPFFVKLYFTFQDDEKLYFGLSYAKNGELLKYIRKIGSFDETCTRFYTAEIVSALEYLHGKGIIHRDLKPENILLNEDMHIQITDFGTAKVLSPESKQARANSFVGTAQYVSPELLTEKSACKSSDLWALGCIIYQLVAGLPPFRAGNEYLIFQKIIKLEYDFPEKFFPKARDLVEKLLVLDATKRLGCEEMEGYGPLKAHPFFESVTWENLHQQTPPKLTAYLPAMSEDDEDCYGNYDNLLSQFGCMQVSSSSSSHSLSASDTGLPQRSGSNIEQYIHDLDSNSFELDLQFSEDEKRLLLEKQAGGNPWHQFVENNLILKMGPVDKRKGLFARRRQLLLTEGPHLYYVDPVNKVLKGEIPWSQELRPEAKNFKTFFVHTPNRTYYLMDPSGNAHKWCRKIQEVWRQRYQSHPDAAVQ
Description: Briefly, a 10× stock of PDPK1 enzyme from Invitrogen (P3001) or BPS (40080) or SignalChem (P14-10H), 1.13×ATP (AS001A) and ST28-Sox peptide substrate (KNZ1281C) were prepared in 1× kinase reaction buffer consisting of 20 mM Tris, pH 7.5, 5 mM MgCl2, 1 mM EGTA, 5 mM β-glycerophosphate, 5% glycerol (10× stock, KB002A) and 0.2 mM DTT (DS001A). 5 μL of enzyme were pre-incubated in a Corning (#3574) 384-well, white, non-binding surface microtiter plate (Corning, N.Y.) for 30 min at 25° C. with a 0.5 μL volume of 50% DMSO and serially diluted compounds prepared in 50% DMSO. Kinase reactions were started with the addition of 45 […] of the ST28-Sox peptide substrate and monitored every 71 seconds for 30-60 minutes at λex360/λem485 in a Synergy4 plate reader from BioTek (Winooski, Vt.). At the conclusion of each assay, progress curves from each well were examined for linear reaction kinetics and fit statistics (R^2, 95% confidence interval, absolute sum of squares). Post-lag velocity (+10 minutes to 20+ minutes) from each reaction was estimated from the slope of a plot of relative fluorescence units vs time (minutes) and normalized to the no enzyme and no inhibitor control groups for % Inhibition. The resulting inhibition values were then plotted against inhibitor concentration to estimate IC50 from log [Inhibitor] vs Response, Variable Slope model in GraphPad Prism from GraphPad Software (San Diego, Calif.).
[Reagent] used in provisional protocol(s): Invitrogen—[PDPK1]=5-10 nM, [ATP]=5 μM and [ST28-Sox]=5 μM or 10 μM (ATP KMapp=4-6 μM); BPS—[PDPK1]=10-15 nM, [ATP]=5 μM and [ST28-Sox]=10 μM (ATP KMapp=3-5 μM); SignalChem—[PDPK1]=5-10 nM, [ATP]=5 μM and [ST28-Sox]=5 μM or 10 μM (ATP KMapp ND)

PDPK1 [2] = target: T1, PDPK1; assay: MALDI MS of intact PDPK1 incubated with compound; format: binding; parameters: purchased Millipore 14-452; conditions: for Number of Modifications on Whole Protein: PDPK1 whole protein, MS; for mass shift of PDPK1: 10-fold excess of compound to protein
Description: (§1) Intact PDPK1 was incubated for 3 hr at a 10-fold excess of compound XI-27 to protein. 3 μL aliquots of the samples were diluted with 10 μL of 0.1% TFA prior to micro C4 Ziptipping directly onto the MALDI target plate using sinapinic acid as the desorption matrix (10 mg/mL in 0.1% TFA:Acetonitrile 50:50).
as §1, with “XI-21” for “XI-27”
For example, Table 7 lists non-limiting examples of compounds that modify PDPK1 whole protein, the number of modifications per protein and the lysines modified within the protein. […] Also, the lysine modified in PDPK-1 by XI-27, XI-26, XI-22, and XI-21 are not the same for each compound. Without wishing to be bound to any particular theory, the position of the warhead, as presented by the scaffold and tether to the lysines in the binding site, effects different results on the modification of the different lysines in the binding site of PDPK-1.

[3] = target: T2, HCV NS3/4A 1b protease enzyme (wild type) (Hepatitis C virus genotype 1b, UniProt P26663); assay: HCV protease FRET assay (IC50_APP), wild type NS3/4A 1b; format: biochemical
T2 construct: 10× stocks of NS3/4A protease enzyme from Bioenza (Mountain View, Calif.); purchased Bioenza
Summary of the method: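 Wild-type NS3/4A 1b protease with serially diluted compounds (from 50% DMSO stocks); reaction started at once with FRET substrate and followed 60-90 min at ex485/em520. Initial velocities (0 to 15+ min) normalised to no-inhibitor and no-enzyme controls; apparent IC50 from variable-slope log[inhibitor]-response fit.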

HCV NS3 protease WT 1b = target: T3, HCV NS3 protease WT 1b (Hepatitis C virus genotype 1b, UniProt P26663); assay: MALDI MS of intact HCV protease 1b WT incubated with compound; format: binding; conditions: WT 1b, 1 HR
T3 construct: The single-chain proteolytic domain (NS4A21-32-GSGS-NS33-631) was cloned into pET-14b; His tag (own knowledge of vector pET-14b); made in house; host or cells: Escherichia coli BL21
Description: Intact HCV (protease) 1bWT was incubated for 1 hr at a 10× fold excess of XVI-26 to protein. 3 ul aliquots of the samples were diluted with 10 ul of 0.1% TFA prior to micro C4 ZipTipping directly onto the MALDI target using Sinapinic acid as the desorption matrix (10 mg/mL in 0.1% TFA:Acetonitrile 50:50). […] Due to likely protein misfolding during protein purification, a small portion of the misfolded protein was not modified.
In order to determine whether the modification of the protein occurred at lysine, the pH from the above experiment was increased from 7.4 to 10.0. Because the compound lysine adduct would be an amide any increase in pH would have minimal effect on the modified protein. If however, the modification occurred at cysteine the resultant thioester bond would be unstable and the compound would hydrolyze off the protein.
Intact HCV (protease) 1bWT, C159S, and C159S/K136A were incubated for 1 hr at a 10× fold excess of XVI-26 to protein. 3 μl aliquots of the samples were diluted with 10 μl of 0.1% TFA prior to micro C4 ZipTipping directly onto the MALDI target using Sinapinic acid as the desorption matrix (10 mg/mL in 0.1% TFA:Acetonitrile 50:50).
Intact HCV (protease) WT1b was incubated for 1 hr at a 10× fold excess of XVI-1 (mw=782.87) to protein. 3 μl aliquots of the samples were diluted with 10 μl of 0.1% TFA prior to micro C4 ZipTipping directly onto the MALDI target using Sinapinic acid as the desorption matrix (10 mg/mL in 0.1% TFA:Acetonitrile 50:50). […] Due to some protein misfolding during the purification of the protein, the unfolded portion of the protein can not react with XVI-1.

Row | pIC50 (PDPK1 [1]) | Number of Modifications on Whole Protein (PDPK1 [2]) | SMILES | pIC50 [3] | MS_HCVNS3_INTACT_NS3 WT 1b 1 HR (HCV NS3 protease WT 1b) | other results
1 | 7.00 to 8.00 | 1 | CC(C)(C(N)=O)C(=O)NCCCNc1nc(Nc2cccc(NC(=O)CNC(=O)C3CSC(=O)C3)c2)ncc1Br (centres unmarked) [XI-26] | – | – | –
2 | – | 1 | C=CC(=O)Nc1cccc(Nc2ncc(Br)c(NCCCNC(=O)C(C)(C)C(N)=O)n2)c1 [XI-53] | – | – | –
3 | > 8.00 | 1 | CC(C)(C(N)=O)C(=O)NCCCNc1nc(Nc2cccc(NC(=O)C3CSC(=O)C3)c2)ncc1Br (centres unmarked) [XI-27] | – | – | modification of PDPK1 (PDPK1 [2]; 3 hr, 10-fold excess): complete modification; mass shift of PDPK1 (PDPK1 [2]; 3 hr): 568 Da
4 | > 8.00 | 2 | CC(C)(C(N)=O)C(=O)NCCCNc1nc(Nc2cccc(NC(=O)CNC(=O)C3CCC(=O)S3)c2)ncc1Br (centres unmarked) [XI-22] | – | – | –
5 | > 8.00 | 2 | CC(C)(C(N)=O)C(=O)NCCCNc1nc(Nc2cccc(NC(=O)C3CCC(=O)S3)c2)ncc1Br (centres unmarked) [XI-21] | – | – | mass shift of PDPK1 as percent (PDPK1 [2]; 3 hr, 10-fold excess): 175%; modification of PDPK1 (PDPK1 [2]; 3 hr, 10-fold excess): complete multiple modification; mass shift of PDPK1 (PDPK1 [2]; 3 hr): 1,009 Da
6 | 7.00 to 8.00 | 1 | C=CC(=O)Nc1ccc(Nc2ncc(Br)c(NCCCNC(=O)C(C)(C)C(N)=O)n2)cc1 [XI-39] | – | – | –

More lines, now with the values behind:

Row | SMILES | pIC50 (PDPK1 [1]) | Number of Modifications on Whole Protein (PDPK1 [2]) | pIC50 [3] | MS_HCVNS3_INTACT_NS3 WT 1b 1 HR (HCV NS3 protease WT 1b) | other results
7 | C=C[C@@H]1C[C@]1(NC(=O)[C@@H]1CC(Oc2nccc3cc(OC)ccc23)CN1C(=O)[C@H](CCC(=O)N1C[C@@H]2CC[C@H]1C(=O)O2)NC(=O)OC(C)(C)C)C(=O)NS(=O)(=O)C1CC1 (stereo partly drawn) [XVI-3, tert-butyl(2S)-1-((2S)-2-((1R,2S)-1-(cyclopropylsulfonylcarbamoyl)-2-vinylcyclopropylcarbamoyl)-4-(6-methoxyisoquinolin-1-yloxy)pyrrolidin-1-yl)-1,5-dioxo-5-((1S,4S)-3-oxo-2-oxa-5-azabicyclo[2.2.2]octan-5-yl)pentan-2-ylcarbamate] | – | – | > 9.00 | K (≤30% modification) | –
8 | C=C[C@@H]1C[C@]1(NC(=O)[C@@H]1CC(OC(=O)N2Cc3cccc(F)c3C2)CN1C(=O)[C@H](CC(=O)N1C[C@H]2C[C@@H]1C(=O)O2)NC(=O)OC(C)(C)C)C(=O)NS(=O)(=O)C1CC1 (stereo partly drawn) [XVI-14, (5S)-1-((S)-2-(tert-butoxycarbonylamino)-4-oxo-4-((1R,4R)-3-oxo-2-oxa-5-azabicyclo[2.2.1]heptan-5-yl)butanoyl)-5-((1R,2S)-1-(cyclopropylsulfonylcarbamoyl)-2-vinylcyclopropylcarbamoyl)pyrrolidin-3-yl 4-fluoroisoindoline-2-carboxylate] | – | – | > 9.00 | H (>50% and ≤70% modification) | –
9 | C=C[C@@H]1C[C@]1(NC(=O)[C@@H]1CC(OC(=O)N2Cc3cccc(F)c3C2)CN1C(=O)[C@H](CCC(=O)N1C[C@H]2C[C@@H]1C(=O)O2)NC(=O)OC(C)(C)C)C(=O)NS(=O)(=O)C1CC1 (stereo partly drawn) [XVI-16, (5S)-1-((S)-2-(tert-butoxycarbonylamino)-5-oxo-5-((1R,4R)-3-oxo-2-oxa-5-azabicyclo[2.2.1]heptan-5-yl)pentanoyl)-5-((1R,2S)-1-(cyclopropylsulfonylcarbamoyl)-2-vinylcyclopropylcarbamoyl)pyrrolidin-3-yl 4-fluoroisoindoline-2-carboxylate] | – | – | > 9.00 | H (>50% and ≤70% modification) | –
10 | C=C[C@@H]1C[C@]1(NC(=O)[C@@H]1CC(OC(=O)N2Cc3cccc(F)c3C2)CN1C(=O)[C@H](CC(=O)N1C[C@@H]2C[C@H]1C(=O)O2)NC(=O)OC(C)(C)C)C(=O)NS(=O)(=O)C1CC1 (stereo partly drawn) [XVI-15, (5S)-1-((S)-2-(tert-butoxycarbonylamino)-4-oxo-4-((1S,4S)-3-oxo-2-oxa-5-azabicyclo[2.2.1]heptan-5-yl)butanoyl)-5-((1R,2S)-1-(cyclopropylsulfonylcarbamoyl)-2-vinylcyclopropylcarbamoyl)pyrrolidin-3-yl 4-fluoroisoindoline-2-carboxylate] | – | – | > 9.00 | H (>50% and ≤70% modification) | –
11 | C=C[C@@H]1C[C@]1(NC(=O)[C@@H]1CC(Oc2nccc3cc(OC)ccc23)CN1C(=O)[C@H](CCC(=O)N1C[C@@H]2C[C@H]1C(=O)O2)NC(=O)OC(C)(C)C)C(=O)NS(=O)(=O)C1CC1 (stereo partly drawn) [XVI-9, tert-butyl(2S)-1-((2S)-2-((1R,2S)-1-(cyclopropylsulfonylcarbamoyl)-2-vinylcyclopropylcarbamoyl)-4-(6-methoxyisoquinolin-1-yloxy)pyrrolidin-1-yl)-1,5-dioxo-5-((1S,4S)-3-oxo-2-oxa-5-azabicyclo[2.2.1]heptan-5-yl)pentan-2-ylcarbamate] | – | – | > 9.00 | H (>50% and ≤70% modification) | –

Source: patent US11542492B2 (Celgene CAR LLC, priority 2009, dated 2023)
